Reference: patent US8377691B2 (priority 2006, dated 2013)
Entries after “also recorded” stand apart in the source; their conditions may differ.

Tested on: A/M2 VN1194
Format: biochemical

SMILES | H+ transport across VLP membranes (fluorescence)
NC12CC3CC(CC(C3)C1)C2 [amantadine] | exerted no effect; also recorded: did not, however, influence
CC(N)C12CC3CC(CC(C3)C1)C2 (centres unmarked) [rimantadine] | exerted no effect
